From ChEMBL document CHEMBL1201862, “PubChem BioAssay data set” (2004) come the findings set out here.

Calls of active or inactive are those of the source.

In series [1] the target is Cytochrome P450 3A4 (Homo sapiens, UniProt P08684).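 Also: CYP3A4 tested as one member of a cytochrome P450 panel screen.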
Series [2] concerns the target Cytochrome P450 2C19 (Homo sapiens, UniProt P33261). The experiment in a line: Cytochrome panel assay with activity outcomes. Panel member name: p450-cyp2c19 Compounds with AC50 equal or less than 10 uM are considered active. In kind it is functional.
Series [3] concerns Streptococcus. Nature of the series: GAS UMAA2166 growth inhibition – luminescence, BacTiterGlo, counter-screen for streptokinase expression inhibitor project, dose response (AID 1915).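 Also: potency for reduction of bacterial viability or growth.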 In kind it is functional, organism-based.
Series [4] in a line: luciferase reporter signal suppression in cells – H4 neuroglioma cells, luminescence, dose response (AID 1990). Type of series: functional, cell-based. For orientation: In a reporter assay the amount or activity of a reporter protein is the signal.
Series [5] can be described thus: Luminescence Cell-Based Dose Response HTS to Identify Inhibitors of 5'UTR Stem-Loop Driven Prion Protein mRNA Translation in H4 Neuroglioblastoma Cells. [Related pubchem assays: 1827 (Project Summary), 1813 (Primary HTS)]. Type of series: functional.
Series [6] is described as follows: alpha-synuclein stem-loop luciferase translation blockers – H4 neuroglioma cells, luminescence, confirmation (AID 1988). In kind it is functional, cell-based.
The nature of series [7]: Luminescence Cell-Based Dose Retest to Confirm Inhibitors of Cancer Stem Cells. [Related pubchem assays (depositor defined):AID2717, AID2721]. Type of series: functional. To be noted: Homo sapiens.
Series [8] deals with Streptococcus sp. 'group A'. Nature of the series: Streptococcus pyogenes SK(-)GAS viability under kanamycin – luminescence, BacTiterGlo, confirmation, counter-screen for streptokinase expression inhibitor project, dose response (AID 1900). Type of series: functional, organism-based. A general note: The purpose of a counterscreen is to sort out artefacts and off-target activity.

Series [9] concerns the target Cytochrome P450 2C9 (Homo sapiens, UniProt P11712).
For series [10], the system named is INS1. The experiment in a line: INS-1E survival protection against cytokine death – cell-based, luminescence, retest, dose response (AID 449756).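 Also: cell death triggered by IL-1 beta plus TNF-alpha plus IFN-gamma mixture; protective hits raise ATP signal compared with cytokine alone wells.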 In kind it is functional. To be noted: Rattus norvegicus.
A short description of series [11]: Trypanosoma cruzi growth suppression in host cells – NIH3T3 host cells, beta-gal luminescence, confirmation (AID 2044).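 Also: intracellular parasites grown in NIH/3T3 mouse fibroblasts as host cells; luminescent beta-galactosidase reporter signal from transgenic T. cruzi replicating inside host cells; inhibitors lower the luminescence signal.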 In kind it is functional, cell-based.
The nature of series [12]: NIH3T3 cell viability loss – ATP luminescence, mouse fibroblasts, counter-screen, dose response (AID 2010).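 Also: cells exposed to compound for about 90 hours before reading.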 Type of series: functional, cell-based.

Sequence of Cytochrome P450 2C19 (P33261 whole entry): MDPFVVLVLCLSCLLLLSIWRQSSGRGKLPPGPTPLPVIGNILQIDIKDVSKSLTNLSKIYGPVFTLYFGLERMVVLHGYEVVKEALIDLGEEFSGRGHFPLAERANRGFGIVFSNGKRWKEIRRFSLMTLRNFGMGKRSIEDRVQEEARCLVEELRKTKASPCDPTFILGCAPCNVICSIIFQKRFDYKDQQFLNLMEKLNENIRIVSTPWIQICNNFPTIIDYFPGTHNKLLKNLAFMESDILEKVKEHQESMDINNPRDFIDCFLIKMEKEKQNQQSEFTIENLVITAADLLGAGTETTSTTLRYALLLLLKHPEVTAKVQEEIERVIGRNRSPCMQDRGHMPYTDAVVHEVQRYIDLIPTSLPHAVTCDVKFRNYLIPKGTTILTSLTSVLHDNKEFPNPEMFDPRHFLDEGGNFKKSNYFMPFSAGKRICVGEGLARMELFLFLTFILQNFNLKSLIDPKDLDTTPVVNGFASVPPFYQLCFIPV
Sequence of Cytochrome P450 3A4 (P08684 whole entry): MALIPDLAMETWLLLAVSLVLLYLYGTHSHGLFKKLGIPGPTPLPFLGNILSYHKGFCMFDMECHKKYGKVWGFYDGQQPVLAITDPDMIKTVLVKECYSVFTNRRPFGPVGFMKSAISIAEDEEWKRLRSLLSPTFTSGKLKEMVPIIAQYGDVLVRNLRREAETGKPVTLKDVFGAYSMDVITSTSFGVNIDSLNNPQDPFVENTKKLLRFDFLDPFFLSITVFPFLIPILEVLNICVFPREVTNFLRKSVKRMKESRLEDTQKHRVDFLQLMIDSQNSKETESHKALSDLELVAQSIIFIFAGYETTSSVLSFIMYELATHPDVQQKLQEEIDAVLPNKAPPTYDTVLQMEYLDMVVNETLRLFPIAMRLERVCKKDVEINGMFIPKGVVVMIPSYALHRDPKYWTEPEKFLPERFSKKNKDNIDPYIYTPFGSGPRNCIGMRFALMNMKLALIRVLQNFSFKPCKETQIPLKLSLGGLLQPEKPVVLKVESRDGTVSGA
Sequence of Cytochrome P450 2C9 (P11712 whole entry): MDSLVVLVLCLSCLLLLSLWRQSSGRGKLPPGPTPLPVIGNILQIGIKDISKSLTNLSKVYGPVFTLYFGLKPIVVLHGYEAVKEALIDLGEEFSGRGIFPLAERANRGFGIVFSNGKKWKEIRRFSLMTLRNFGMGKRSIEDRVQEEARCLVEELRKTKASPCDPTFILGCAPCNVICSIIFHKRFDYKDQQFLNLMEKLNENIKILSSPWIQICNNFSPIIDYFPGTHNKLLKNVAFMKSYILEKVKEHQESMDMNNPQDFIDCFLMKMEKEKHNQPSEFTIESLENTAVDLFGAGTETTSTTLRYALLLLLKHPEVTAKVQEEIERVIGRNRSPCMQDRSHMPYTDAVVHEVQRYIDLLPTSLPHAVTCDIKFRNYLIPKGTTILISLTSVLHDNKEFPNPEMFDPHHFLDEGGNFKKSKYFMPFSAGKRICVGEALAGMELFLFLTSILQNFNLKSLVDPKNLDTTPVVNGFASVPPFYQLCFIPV

One may read the AC50 as the concentration at which the activity in the assay is half-maximal. As for `COc1cccc(Nc2ncc3ncc(=O)n(C)c3n2)c1`, the AC50 in series [1] was 12.6 µM (inconclusive); in series [2] it was “inconclusive”.

Consider `COc1ccc(CCN2CC34C=CC(O3)C(C(=O)NCc3ccccc3)C4C2=O)cc1OC` (configuration not stated), for which the AC50 in series [2] (read-out: AC50) was 14.1 µM (inconclusive).

Usually EC50 stands for the concentration giving half of the maximal effect. Regarding `O=[N+]([O-])c1ccc(O)c(-c2nc(-c3ccccc3)c(-c3cccs3)[nH]2)c1`, the 50% effective concentration (EC50) in series [3] is 2.38 µM (active); in [4] it was 18.2 µM (active); in series [5] it was > 120 µM (not active); in [6], > 120 µM (not active); in series [8], 1.23 µM (active). Also, the AC50 in series [7] is 0.662 µM (active).

As to `COc1ccc(-n2c(=O)c(C)nc3cnc(Nc4cccc(OC)c4)nc32)cc1`, the AC50 was 39.8 µM (inconclusive) in [9], 10 µM (inconclusive) in series [1] and 39.8 µM (inconclusive) in series [2] (read-out: AC50).

`Cc1cc(NC(=O)COC(=O)c2ccc(NS(=O)(=O)c3ccc(C)c(C)c3)cc2)no1`: in [2] (read-out: AC50), the AC50 was 14.1 µM (inconclusive).

As for `O=P(O)(O)CCP(=O)(c1ccccc1)c1ccccc1`, the AC50 entry in series [2] is “inconclusive”.

With `FC(F)(F)c1ccccc1-c1nc(NC2CCNCC2)c2ccccc2n1`, the AC50 entry in series [2] was “inconclusive”.

With `C[N+](C)(C)c1nc(N)nc2c1ncn2[C@H]1O[C@@H](CO)[C@@H](O)[C@H]1O`, in series [2], the AC50 entry was “inconclusive”.

Consider `CCCc1cc(=O)oc2c(CN3CCOCC3)c(O)ccc12`, for which the AC50 in series [2] (read-out: AC50) is 25.1 µM (inconclusive).

With `CN1CCc2[nH]nc(-c3n[nH]c4c3CN(C)CC4)c2C1`, the AC50 result in series [2] was “inconclusive”.

As to `Cc1cc(-c2c(C)[nH]n(-c3ccccc3)c2=O)n(-c2ccccc2)n1`, the AC50 in series [2] (read-out: AC50) is 20 µM (inconclusive).

On to `C/C(=N\NC(=O)COc1ccccc1-c1ccccc1)c1ccc(O)cc1O`, for which the EC50 in [3] was 5.4 µM (active); in series [4], 11.1 µM (active); in [5] it was 9.87 µM (active); in series [11], 1.24 µM (active); in [12], 4.94 µM (active); in [6], 9.9 µM (active). Also, in series [8], the EC50 was 3.01 µM (active). The AC50 in series [10] is 2.48 µM (active).
